Calls of active or inactive are those of the source.
Legend:
[1] = HepG2 cell cytotoxicity, dose response, cytotoxicity control for Shn3 inhibitor project, CellTiter-Glo, cherry-picked (AID 624134); format: functional, cell-based
Cytochrome P450 1A2 = target: T1, Cytochrome P450 1A2 (Homo sapiens, UniProt P05177);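 note: PubChem cytochrome P450 panel assay, CYP1A2 panel member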
T1 sequence (P05177 whole entry): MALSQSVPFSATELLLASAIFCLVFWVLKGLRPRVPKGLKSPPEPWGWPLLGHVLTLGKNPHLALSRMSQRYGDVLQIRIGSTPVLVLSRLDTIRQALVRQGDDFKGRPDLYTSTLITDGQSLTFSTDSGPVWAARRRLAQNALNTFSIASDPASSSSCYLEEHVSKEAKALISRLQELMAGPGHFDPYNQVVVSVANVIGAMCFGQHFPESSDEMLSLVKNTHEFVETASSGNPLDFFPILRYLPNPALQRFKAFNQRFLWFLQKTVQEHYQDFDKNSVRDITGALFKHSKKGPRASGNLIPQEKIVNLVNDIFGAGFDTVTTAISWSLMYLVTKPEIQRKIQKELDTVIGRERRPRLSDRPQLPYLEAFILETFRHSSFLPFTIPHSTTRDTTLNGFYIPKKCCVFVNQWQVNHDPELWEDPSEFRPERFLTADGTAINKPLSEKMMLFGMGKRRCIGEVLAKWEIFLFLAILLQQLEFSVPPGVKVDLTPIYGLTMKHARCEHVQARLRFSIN

Protein skinhead-1 = target: T2, Protein skinhead-1 (Caenorhabditis elegans, UniProt P34707); format: functional
T2 sequence (P34707 whole entry): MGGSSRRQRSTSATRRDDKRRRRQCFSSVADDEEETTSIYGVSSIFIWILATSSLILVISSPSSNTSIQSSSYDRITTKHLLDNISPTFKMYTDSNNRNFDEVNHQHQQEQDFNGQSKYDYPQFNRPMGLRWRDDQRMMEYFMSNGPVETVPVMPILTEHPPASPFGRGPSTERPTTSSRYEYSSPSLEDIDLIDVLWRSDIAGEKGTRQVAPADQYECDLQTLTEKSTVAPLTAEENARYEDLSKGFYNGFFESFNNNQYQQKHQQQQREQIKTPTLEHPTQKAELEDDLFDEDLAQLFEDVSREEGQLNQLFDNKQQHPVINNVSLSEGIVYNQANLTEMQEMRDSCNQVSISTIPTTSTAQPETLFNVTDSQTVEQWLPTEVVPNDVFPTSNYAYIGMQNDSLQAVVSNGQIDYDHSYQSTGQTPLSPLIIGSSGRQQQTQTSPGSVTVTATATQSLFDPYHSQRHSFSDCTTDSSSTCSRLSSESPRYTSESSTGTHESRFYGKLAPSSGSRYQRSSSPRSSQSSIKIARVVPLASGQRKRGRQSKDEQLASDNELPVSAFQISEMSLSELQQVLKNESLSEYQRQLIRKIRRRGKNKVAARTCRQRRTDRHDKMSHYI

[2] = Shn3 3'UTR reporter inhibitors, dose response, cell-based, Clone20 osteoblasts, firefly luciferase, cherry-picked (AID 624132); format: functional;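 note: firefly luciferase luminescence from reporter carrying the Shn3 3'UTR in osteoblasts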
[3] = control 3'UTR Renilla luciferase suppression, dose response, counter-screen for Shn3 inhibitor project, cell-based, Clone20-Shn3RL, cherry-picked (AID 624133); format: functional
Cytochrome P450 3A4 = Cytochrome P450 3A4 (Homo sapiens, UniProt P08684);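 note: CYP3A4 tested as one member of a cytochrome P450 panel screen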
Chain of Cytochrome P450 3A4 (P08684 whole entry): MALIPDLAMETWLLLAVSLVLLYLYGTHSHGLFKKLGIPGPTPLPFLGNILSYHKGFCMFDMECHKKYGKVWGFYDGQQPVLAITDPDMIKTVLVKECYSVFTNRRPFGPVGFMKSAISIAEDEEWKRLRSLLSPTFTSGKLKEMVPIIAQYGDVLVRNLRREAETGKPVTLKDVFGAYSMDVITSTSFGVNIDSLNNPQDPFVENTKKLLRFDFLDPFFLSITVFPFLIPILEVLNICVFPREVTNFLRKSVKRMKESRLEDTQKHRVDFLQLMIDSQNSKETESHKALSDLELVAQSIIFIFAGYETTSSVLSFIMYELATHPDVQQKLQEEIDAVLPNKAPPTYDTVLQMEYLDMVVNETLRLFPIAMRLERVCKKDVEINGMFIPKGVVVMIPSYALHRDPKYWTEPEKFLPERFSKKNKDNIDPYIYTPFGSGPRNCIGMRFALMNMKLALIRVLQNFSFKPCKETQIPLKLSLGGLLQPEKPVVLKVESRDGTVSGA

cells = format: functional
[4] = Vero E6 cell cytotoxicity, dose response, cytotoxicity control for non-replicating M. tuberculosis project, secondary assay (AID 492998); format: functional, VeroE6; details: Vero C1008
[5] = THP-1 cell cytotoxicity, dose response, cytotoxicity control for non-replicating M. tuberculosis project (AID 489025); format: functional
Coagulation factor XII = target: T3, Coagulation factor XII (Homo sapiens, UniProt P00748); format: functional;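 note: activated factor XIIa alpha cleaving a fluorogenic AMC peptide substrate; inhibitor potency from loss of enzyme activity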
T3 sequence (P00748 whole entry): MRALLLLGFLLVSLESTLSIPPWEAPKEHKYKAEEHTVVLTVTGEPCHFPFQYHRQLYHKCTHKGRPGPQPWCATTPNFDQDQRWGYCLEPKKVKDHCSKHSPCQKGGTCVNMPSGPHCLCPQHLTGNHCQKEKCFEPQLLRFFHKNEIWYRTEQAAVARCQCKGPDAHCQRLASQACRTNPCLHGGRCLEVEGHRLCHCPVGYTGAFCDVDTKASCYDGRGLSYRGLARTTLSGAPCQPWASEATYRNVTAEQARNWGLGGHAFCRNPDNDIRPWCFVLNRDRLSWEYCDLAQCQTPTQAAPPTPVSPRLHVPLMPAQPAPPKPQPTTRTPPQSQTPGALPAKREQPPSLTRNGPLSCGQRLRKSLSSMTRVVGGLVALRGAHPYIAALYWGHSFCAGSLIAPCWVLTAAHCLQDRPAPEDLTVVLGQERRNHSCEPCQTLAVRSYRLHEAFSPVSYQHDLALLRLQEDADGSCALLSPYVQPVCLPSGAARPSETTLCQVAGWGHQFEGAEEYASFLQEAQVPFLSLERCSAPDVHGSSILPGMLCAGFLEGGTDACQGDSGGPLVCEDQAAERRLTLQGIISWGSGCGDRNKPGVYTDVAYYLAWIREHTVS

HEK293 = experiment: inhibitors of LMP1-driven NF-kB reporter, dose response, cell-based, HEK293, luciferase, cherry-pick (AID 588343); format: functional; details: Homo sapiens
[6] = cytotoxicity toward DRD oncogenic fibroblasts, dose response, cell-based, non-viral oncogenic, luminescence (AID 1934); format: functional; details: Homo sapiens
[7] = target: T4, Heat shock factor protein 1 (Mus musculus, UniProt P38532); experiment: inhibition of MG132-induced HSE-luciferase signal, confirmation, cell-based, NIH3T3, luminescence, dose retest (AID 2382); format: functional;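 note: NIH3T3 fibroblasts with HSF1-driven luciferase reporter stressed by proteasome inhibitor MG132; luminescence from HSF1-driven luciferase expression after 8 hours of MG132 stress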
T4 sequence (P38532 whole entry): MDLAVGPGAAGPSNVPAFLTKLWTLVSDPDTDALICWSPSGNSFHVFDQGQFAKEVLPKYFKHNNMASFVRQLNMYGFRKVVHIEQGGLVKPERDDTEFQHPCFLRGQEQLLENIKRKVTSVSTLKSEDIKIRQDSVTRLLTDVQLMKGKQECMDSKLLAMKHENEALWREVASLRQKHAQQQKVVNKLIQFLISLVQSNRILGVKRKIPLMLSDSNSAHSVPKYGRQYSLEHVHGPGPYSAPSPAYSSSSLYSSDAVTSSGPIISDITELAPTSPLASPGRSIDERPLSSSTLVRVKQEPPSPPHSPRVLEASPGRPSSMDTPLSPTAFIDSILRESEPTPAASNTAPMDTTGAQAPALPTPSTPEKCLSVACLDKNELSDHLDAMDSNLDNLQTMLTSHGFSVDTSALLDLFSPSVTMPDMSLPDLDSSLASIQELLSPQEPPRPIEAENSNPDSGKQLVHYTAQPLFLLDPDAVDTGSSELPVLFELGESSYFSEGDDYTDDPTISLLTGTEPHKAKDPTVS

BJ [8] = experiment: cytotoxicity toward BJ-TERT fibroblasts, dose response, cell-based, RAS-independent, luminescence (AID 1933); format: functional; details: Homo sapiens
BJ [9] = experiment: cells; format: functional, cell-based; details: Homo sapiens
[10] = Luminescence Cell-Based Dose Confirmation HTS to Identify Inhibitors of Platelet Dense Granule Release. [Related pubchem assays: 1663 (Primary HTS), 1678 (Summary of Project)]; format: functional
BJ [11] = experiment: cytotoxicity toward BJ-TERT-LT-ST fibroblasts, dose response, cell-based, RAS-independent, luminescence (AID 1935); format: functional; details: Homo sapiens;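 note: BJ fibroblasts immortalized with TERT plus LT and ST oncogenes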
[12] = cytotoxicity in HEK-293T cells, dose response, cytotoxicity control for TCR NF-kB inhibitor project, luminescence, T-cell screen hits (AID 489026); format: functional, cell-based;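 note: cells exposed to compound about 14 hours before the viability readout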
[13] = target: Luciferin 4-monooxygenase (Photinus pyralis, UniProt P08659); experiment: firefly luciferase enzyme inhibitors, dose response, biochemical, luminescence (AID 1891)
Cytochrome P450 2C19 = Cytochrome P450 2C19 (Homo sapiens, UniProt P33261); experiment: Cytochrome panel assay with activity outcomes. Panel member name: p450-cyp2c19 Compounds with AC50 equal or less than 10 uM are considered active; format: functional; details: read-out: AC50
Chain of Cytochrome P450 2C19 (P33261 whole entry): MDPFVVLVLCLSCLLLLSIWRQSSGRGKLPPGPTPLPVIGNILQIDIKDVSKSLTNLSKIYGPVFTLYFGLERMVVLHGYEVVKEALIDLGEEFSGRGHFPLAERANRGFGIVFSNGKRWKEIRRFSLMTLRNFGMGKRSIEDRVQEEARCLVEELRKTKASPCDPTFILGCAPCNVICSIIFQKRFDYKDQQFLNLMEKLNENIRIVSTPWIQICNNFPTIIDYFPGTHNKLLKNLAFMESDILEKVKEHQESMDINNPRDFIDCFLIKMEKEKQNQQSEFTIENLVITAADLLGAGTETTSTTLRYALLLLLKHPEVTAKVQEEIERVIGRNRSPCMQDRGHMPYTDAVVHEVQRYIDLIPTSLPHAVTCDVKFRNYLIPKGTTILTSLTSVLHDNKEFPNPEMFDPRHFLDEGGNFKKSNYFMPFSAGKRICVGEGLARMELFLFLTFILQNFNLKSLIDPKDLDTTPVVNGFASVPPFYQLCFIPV

[14] = target: T5, High affinity choline transporter 1 (Homo sapiens, UniProt Q9GZV3); experiment: CHT inhibitors, dose response, cell-based, 5-point CRC, membrane potential dye (AID 504840); format: functional
T5 sequence (Q9GZV3 whole entry): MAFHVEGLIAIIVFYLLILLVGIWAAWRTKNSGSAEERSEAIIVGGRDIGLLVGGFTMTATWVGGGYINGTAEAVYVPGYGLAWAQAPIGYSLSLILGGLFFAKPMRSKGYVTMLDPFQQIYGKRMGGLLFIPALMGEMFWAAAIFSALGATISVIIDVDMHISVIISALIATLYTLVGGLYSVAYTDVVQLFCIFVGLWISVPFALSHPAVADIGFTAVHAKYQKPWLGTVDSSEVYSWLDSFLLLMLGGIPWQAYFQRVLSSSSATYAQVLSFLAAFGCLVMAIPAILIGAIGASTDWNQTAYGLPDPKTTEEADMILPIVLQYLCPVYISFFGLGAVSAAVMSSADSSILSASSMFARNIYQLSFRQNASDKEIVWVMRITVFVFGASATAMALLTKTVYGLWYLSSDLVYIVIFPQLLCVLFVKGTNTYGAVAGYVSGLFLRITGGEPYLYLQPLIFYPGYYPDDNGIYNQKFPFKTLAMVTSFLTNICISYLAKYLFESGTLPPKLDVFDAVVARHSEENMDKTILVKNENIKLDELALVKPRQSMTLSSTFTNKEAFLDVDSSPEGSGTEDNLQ

[15] = target: T6, Polyadenylate-binding protein 1 (Homo sapiens, UniProt P11940); experiment: PABP1 MLLE–PAM2 interaction inhibitors, dose response, miRNA deadenylation inhibitor project, biochemical, fluorescence polarization, Cy5-PAM2 peptide, secondary (AID 602260); format: functional; details: read-out: IC50_Mean
T6 sequence (P11940 whole entry): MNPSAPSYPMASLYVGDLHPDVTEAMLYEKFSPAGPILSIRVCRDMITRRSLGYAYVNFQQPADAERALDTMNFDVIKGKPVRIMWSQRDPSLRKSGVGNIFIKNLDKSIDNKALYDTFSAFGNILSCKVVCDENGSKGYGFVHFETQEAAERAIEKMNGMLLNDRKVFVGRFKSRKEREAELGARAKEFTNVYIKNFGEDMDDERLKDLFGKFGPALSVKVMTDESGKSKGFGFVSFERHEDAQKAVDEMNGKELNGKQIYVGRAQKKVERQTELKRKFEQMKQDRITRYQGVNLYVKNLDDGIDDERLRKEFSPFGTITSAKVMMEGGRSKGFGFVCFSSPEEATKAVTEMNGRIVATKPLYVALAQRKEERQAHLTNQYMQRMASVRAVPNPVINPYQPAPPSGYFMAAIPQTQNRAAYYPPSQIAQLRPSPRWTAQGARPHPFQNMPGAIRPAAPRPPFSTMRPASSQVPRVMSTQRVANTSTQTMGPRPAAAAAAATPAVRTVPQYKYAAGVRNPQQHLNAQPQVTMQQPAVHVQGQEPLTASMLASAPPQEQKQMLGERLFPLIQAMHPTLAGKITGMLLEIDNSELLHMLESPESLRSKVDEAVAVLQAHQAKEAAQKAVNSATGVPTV

Genome polyprotein = Genome polyprotein (dengue virus type 2, UniProt P29990); experiment: Dengue-2 NS5 methyltransferase inhibitors, primary screen, biochemical, confirmation dose response (AID 588689); format: functional
Chain of Genome polyprotein (P29990 2492-3391 limits assumed): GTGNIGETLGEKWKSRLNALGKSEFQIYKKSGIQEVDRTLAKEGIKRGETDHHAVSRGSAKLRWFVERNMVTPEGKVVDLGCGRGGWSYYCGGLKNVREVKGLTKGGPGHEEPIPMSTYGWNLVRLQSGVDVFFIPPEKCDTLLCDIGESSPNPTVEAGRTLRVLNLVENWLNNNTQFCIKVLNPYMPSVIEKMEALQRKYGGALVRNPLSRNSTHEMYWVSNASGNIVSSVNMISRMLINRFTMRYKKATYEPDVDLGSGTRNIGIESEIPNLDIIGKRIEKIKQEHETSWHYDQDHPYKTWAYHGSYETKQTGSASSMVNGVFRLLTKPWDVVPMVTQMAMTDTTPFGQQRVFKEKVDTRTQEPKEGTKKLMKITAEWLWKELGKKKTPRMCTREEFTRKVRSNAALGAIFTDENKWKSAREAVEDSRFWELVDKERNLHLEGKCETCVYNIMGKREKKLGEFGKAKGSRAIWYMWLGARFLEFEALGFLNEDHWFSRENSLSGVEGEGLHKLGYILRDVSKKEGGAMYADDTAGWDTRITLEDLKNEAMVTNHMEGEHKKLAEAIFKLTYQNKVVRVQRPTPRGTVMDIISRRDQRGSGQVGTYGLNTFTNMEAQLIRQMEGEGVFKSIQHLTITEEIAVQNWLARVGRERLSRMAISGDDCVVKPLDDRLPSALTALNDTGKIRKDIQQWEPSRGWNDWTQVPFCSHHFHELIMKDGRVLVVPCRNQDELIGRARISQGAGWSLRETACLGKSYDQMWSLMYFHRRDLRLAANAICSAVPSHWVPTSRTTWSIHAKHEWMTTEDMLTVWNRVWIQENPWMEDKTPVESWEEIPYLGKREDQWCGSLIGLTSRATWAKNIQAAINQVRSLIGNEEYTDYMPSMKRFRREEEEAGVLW

[16] = target: T6, Polyadenylate-binding protein 1; experiment: PABP1 MLLE–PAM2 binding inhibitor potency, dose response, biochemical, fluorescence polarization, FITC-PAM2 peptide (AID 602259); format: functional; details: read-out: IC50_Mean
Fatty acid synthase [17] = target: T7, Fatty acid synthase (Homo sapiens, UniProt P49327); experiment: FAS thioesterase domain inhibitors, dose response, biochemical, kinetic fluorescence intensity (AID 624326); format: functional;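 note: rate of fluorescence rise from hydrolysis of a fluorogenic O-methyl fluorescein ester substrate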
T7 sequence (P49327 whole entry, the tested form may be a part): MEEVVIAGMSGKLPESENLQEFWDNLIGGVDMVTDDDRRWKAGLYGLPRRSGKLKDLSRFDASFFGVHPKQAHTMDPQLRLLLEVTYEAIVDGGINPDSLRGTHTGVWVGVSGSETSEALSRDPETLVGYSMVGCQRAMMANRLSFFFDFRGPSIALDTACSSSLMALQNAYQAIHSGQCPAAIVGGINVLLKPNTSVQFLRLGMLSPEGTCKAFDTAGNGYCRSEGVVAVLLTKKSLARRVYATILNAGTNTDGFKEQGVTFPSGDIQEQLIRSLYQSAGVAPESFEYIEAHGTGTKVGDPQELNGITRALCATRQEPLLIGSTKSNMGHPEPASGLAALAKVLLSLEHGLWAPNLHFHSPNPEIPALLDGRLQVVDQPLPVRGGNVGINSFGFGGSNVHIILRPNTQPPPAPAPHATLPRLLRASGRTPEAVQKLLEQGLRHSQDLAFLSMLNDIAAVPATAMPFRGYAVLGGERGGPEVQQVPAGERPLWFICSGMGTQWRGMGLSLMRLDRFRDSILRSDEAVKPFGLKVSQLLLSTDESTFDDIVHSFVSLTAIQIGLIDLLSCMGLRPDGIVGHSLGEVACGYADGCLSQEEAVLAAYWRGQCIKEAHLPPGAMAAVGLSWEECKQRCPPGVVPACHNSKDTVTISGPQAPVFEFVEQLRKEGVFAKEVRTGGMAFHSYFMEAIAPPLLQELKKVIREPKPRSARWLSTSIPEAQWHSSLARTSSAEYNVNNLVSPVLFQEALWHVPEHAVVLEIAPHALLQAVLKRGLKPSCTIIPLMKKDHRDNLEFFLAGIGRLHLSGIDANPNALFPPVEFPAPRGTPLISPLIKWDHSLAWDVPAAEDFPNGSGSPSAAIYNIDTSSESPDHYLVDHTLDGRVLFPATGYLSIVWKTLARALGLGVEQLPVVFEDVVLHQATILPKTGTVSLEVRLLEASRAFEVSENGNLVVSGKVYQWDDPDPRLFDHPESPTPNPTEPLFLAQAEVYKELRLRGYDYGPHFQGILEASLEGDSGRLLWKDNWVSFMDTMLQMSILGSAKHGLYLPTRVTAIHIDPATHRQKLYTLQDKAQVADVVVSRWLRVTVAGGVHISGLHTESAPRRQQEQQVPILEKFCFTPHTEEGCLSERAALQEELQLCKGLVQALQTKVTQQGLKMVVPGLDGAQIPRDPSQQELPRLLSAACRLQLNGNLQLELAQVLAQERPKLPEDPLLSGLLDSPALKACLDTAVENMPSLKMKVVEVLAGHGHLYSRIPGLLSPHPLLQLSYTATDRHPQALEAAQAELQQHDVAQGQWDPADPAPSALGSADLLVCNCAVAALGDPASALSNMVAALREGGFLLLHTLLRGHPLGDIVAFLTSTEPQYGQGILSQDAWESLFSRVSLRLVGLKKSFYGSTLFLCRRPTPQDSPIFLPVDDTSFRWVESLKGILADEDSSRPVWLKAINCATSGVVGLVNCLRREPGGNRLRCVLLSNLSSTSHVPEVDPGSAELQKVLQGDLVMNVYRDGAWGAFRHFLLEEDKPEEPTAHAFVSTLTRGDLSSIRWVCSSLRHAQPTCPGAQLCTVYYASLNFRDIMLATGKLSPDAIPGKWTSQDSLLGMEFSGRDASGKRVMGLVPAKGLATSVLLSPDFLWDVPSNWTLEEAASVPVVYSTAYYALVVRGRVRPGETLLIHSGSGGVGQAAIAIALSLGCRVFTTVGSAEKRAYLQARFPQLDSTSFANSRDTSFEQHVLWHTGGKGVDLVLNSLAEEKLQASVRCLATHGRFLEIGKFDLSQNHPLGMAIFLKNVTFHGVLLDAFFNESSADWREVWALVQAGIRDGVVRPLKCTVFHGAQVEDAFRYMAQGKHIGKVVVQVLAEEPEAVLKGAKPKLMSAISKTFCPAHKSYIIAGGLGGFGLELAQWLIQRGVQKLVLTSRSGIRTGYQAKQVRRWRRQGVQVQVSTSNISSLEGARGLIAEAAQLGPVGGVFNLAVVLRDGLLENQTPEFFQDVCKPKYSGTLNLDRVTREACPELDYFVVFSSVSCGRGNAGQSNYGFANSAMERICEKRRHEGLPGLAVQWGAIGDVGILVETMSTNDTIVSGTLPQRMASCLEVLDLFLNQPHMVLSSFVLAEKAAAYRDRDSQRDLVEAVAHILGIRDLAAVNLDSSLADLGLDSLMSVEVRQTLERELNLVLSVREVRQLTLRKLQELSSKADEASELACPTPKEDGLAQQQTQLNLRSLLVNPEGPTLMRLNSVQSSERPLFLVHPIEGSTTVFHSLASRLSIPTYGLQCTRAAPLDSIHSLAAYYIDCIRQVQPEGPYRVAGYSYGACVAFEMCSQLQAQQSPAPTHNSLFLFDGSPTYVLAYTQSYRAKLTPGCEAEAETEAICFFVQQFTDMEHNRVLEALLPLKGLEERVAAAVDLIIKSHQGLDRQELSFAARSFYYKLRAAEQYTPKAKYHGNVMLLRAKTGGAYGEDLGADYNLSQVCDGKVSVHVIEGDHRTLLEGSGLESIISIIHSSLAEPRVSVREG

Fatty acid synthase [18] = target: T7, Fatty acid synthase; experiment: FAS thioesterase domain inhibitors, dose response, biochemical, endpoint fluorescence intensity, uHTS hits (AID 624327); format: functional;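 note: fluorescence from hydrolysis of an O-methyl fluorescein acyl ester substrate by the enzyme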

Cc1c(C(=O)Nc2cccc(C(F)(F)F)c2)oc2ccc(S(=O)(=O)N3CCOCC3)cc12
AC50 [1]: > 70 µM (inactive)
AC50 (Cytochrome P450 1A2): 10 µM (inconclusive)
IC50 (Protein skinhead-1): > 100 µM (inactive)
AC50 [2]: 3.8 µM (active)
AC50 [3]: > 70 µM (inactive)
AC50 (Cytochrome P450 3A4): inconclusive

Cc1cc(NC(=O)c2ccccc2F)n(-c2nc3ccccc3[nH]2)n1
IC50 (cells): > 50 µM (active)
CC50 [4]: 17.6 µM (active)
CC50 [5]: > 40 µM (active)

CCOC(=O)C1(Cc2cccc(F)c2)CCN(C(=O)Cn2cnnn2)CC1
IC50 (Coagulation factor XII): > 50 µM (inactive)

O=C(c1ccc(COc2ccccc2Cl)o1)N1CCCC1
AC50 (HEK293): 77.8 µM (active)

Cc1ccc(-c2cc3c(N=O)c4ccccc4c-3[nH]n2)cc1
EC50 [6]: 6.32 µM (active)
EC50 [7]: 4.95 µM (active)
EC50 (BJ [8]): 6.45 µM (active)
EC50 (BJ [9]): 6.73 µM (active)
EC50 [10]: 3.05 µM (active)
EC50 (BJ [11]): 13.1 µM (active)
IC50 [12]: > 80 µM (inactive)
EC50 [13]: 0.207 µM (active)

CCOc1ccc(CC(=O)C2C(=O)CCCC2=O)cc1OCC
AC50 (Cytochrome P450 2C19): 39.8 µM (inconclusive)
AC50 (Cytochrome P450 3A4): inconclusive

CCCCc1ccc(NC(=O)CSc2nc(=O)n(CCCN3CCOCC3)c3c2CCC3)cc1
IC50 [14]: 13.8 µM (active)

COc1ccccc1CN1C(=O)[C@@H]2C(CCC(N)=O)NC3(C(=O)Nc4c3ccc(Cl)c4C)[C@@H]2C1=O (stereo not given in full)
IC50 [14]: 16.6 µM (active)

O=C(c1cccc(F)c1)N1CCC2(CC1)CN(c1ccc(-c3ccccc3)cc1)C2
AC50 (Cytochrome P450 3A4): inconclusive

COc1ccc(Nc2cc(Cl)ccc2C(=O)O)cn1
IC50 [15]: > 66 µM (inactive)
IC50 (Genome polyprotein): 63.5 µM (active)
IC50 [16]: 52.2 µM (inactive)

CCOC(=O)c1sc(N2C(=O)C(O)=C(C(=O)c3ccco3)C2c2ccc([N+](=O)[O-])cc2)nc1C (stereo not given)
IC50 (Fatty acid synthase [17]): 7.89 µM (active)
IC50 (Fatty acid synthase [18]): 5.46 µM (active)
IC50 (Genome polyprotein): 38.1 µM (active)

— ChEMBL document CHEMBL1201862, “PubChem BioAssay data set” (2004)
